Measured values taken from ChEMBL document CHEMBL1146792, “Antimitotic activity of glaupalol-related coumarins from Glaucidium palmatum” (Bioorg Med Chem Lett, 2004).
In brackets after ≈: the same amount, converted by molar mass.

How the values were obtained:
[1] = target: Tubulin alpha chain (Sus scrofa, UniProt P02550); test: Inhibition of the polymerization of tubulin; assay type: functional
[2] = test system: KB; test: Compound was tested for cytotoxicity against human KB cells; assay type: functional, cell-based

Sequence of Tubulin alpha chain (P02550 whole entry, looked up): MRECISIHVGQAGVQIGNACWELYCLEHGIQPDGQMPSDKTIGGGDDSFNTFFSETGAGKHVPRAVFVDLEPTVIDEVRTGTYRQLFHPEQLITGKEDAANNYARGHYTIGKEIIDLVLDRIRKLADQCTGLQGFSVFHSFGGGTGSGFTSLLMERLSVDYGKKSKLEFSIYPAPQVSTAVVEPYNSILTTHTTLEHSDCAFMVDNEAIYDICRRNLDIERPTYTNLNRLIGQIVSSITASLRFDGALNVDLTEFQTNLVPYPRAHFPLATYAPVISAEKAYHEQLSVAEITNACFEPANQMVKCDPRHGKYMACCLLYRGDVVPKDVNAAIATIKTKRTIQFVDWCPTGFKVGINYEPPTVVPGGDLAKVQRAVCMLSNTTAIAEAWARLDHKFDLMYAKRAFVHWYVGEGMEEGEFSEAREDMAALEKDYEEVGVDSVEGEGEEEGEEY

Row | IC50 [1] [µM] | SMILES | IC50 [2] [µg/mL]
1 | 30 | CC(=O)OC[C@@]1(C)c2c(c3c(C)c(O)ccc3oc2=O)O[C@@H]1C | 17 (≈ 53.4 µM)
2 | 10 | CC(=O)OC[C@@]1(C)c2c(c3c(C)c(O)ccc3oc2=O)O[C@H]1C | 23 (≈ 72.3 µM)
3 |  | Cc1c(OC2O[C@H](CO)[C@@H](O)[C@H](O)[C@H]2O)ccc2oc(=O)c3c(c12)OC(C)C3(C)C (single isomer, unassigned) | 6.7 (≈ 15.9 µM)
4 |  | COc1cc(=O)oc2ccc(O)c(C)c12 | 4.8 (≈ 23.3 µM)
5 |  | Cc1c(O)ccc2oc(=O)c3c(c12)O[C@H](C)[C@@]3(C)CO | 4.3 (≈ 15.6 µM)
6 |  | Cc1c(O)ccc2oc(=O)c3c(c12)O[C@@H](C)[C@@]3(C)CO | 5.7 (≈ 20.6 µM)
7 |  | Cc1c(O)ccc2oc(=O)c3c(c12)OC(C)C3(C)C (centres undefined) | 1.5 (≈ 5.76 µM)
